In this assay the test system is panel of 290 distinct kinases (321 in the larger panel), excluding mutant variants. Particulars: no asterisk: panel of 290 distinct kinases.

Among the data in patent publication US9730937B2, “RAF kinase modulator compounds and methods of use thereof” (AMBIT BIOSCIENCES CORPORATION, priority 2008, dated 2017) are S35 values, retold here.

Turning to `COc1cc2ncnc(Oc3cccc(NC(=O)Nc4cc(C(C)(C)CN5CCOCC5)on4)c3)c2cc1OC` [Ex 302, 1-(3-(6,7-dimethoxyquinazolin-4-yloxy)phenyl)-3-(5-(2-methyl-1-morpholinopropan-2-yl)isoxazol-3-yl)urea], the S35 entry is “B (0.10 < B ≦ 0.20)”.
As to `COc1cc2ncnc(Oc3cccc(NC(=O)Nc4cc(C(C)(C)C)nn4-c4cnccc4C)c3)c2cc1OC` [Ex 303, 1-(3-tert-butyl-1-(4-methylpyridin-3-yl)-1H-pyrazol-5-yl)-3-(3-(6,7-dimethoxyquinazolin-4-yloxy)phenyl)urea], the S35 result was “D (D > 0.40)”.
In the case of `COc1cc2ncnc(Oc3cccc(NC(=O)Nc4cc(C(F)(F)C(F)(F)F)nn4-c4ccccc4)c3)c2cc1OC` [Ex 304, 1-(3-(6,7-dimethoxyquinazolin-4-yloxy)phenyl)-3-(3-(perfluoroethyl)-1-phenyl-1H-pyrazol-5-yl)urea], the S35 result is given as “C (0.20 < C ≦ 0.40)”.
For `COc1cc2ncnc(Sc3cccc(NC(=O)Nc4cc(C5CCC5)nn4-c4ccccc4)c3)c2cc1OC` [Ex 356, 1-(3-cyclobutyl-1-phenyl-1H-pyrazol-5-yl)-3-(3-(6,7-dimethoxyquinazolin-4-ylthio)phenyl)urea], the S35 result is “C (0.20 < C ≦ 0.40)”.
As to `COc1cc2ncnc(Oc3cccc(NC(=O)Nc4cc(C(C)(C)C)nn4Cc4ccccc4)c3)c2cc1OC` [Ex 357, 1-(1-benzyl-3-tert-butyl-1H-pyrazol-5-yl)-3-(3-(6,7-dimethoxyquinazolin-4-yloxy)phenyl)urea], the S35 entry is given as “C (0.20 < C ≦ 0.40)”.
Take `COc1cc2ncnc(Sc3cccc(NC(=O)Nc4cc(C(C)(C)C)nn4Cc4ccccc4)c3)c2cc1OC` [Ex 358, 1-(1-benzyl-3-tert-butyl-1H-pyrazol-5-yl)-3-(3-(6,7-dimethoxyquinazolin-4-ylthio)phenyl)urea]: the S35 entry was “C (0.20 < C ≦ 0.40)”.
For `COc1cc2ncnc(Oc3cccc(NC(=O)Nc4cc(C(C)(C)C)nn4-c4cccc(F)c4)c3)c2cc1OC` [Ex 359, 1-(3-tert-butyl-1-(3-fluorophenyl)-1H-pyrazol-5-yl)-3-(3-(6,7-dimethoxyquinazolin-4-yloxy)phenyl)urea] the value was “D (D > 0.40)”.
Consider `COc1cc2ncnc(Sc3cccc(NC(=O)Nc4cc(C(C)(C)C)nn4-c4cccc(F)c4)c3)c2cc1OC` [Ex 360, 1-(3-tert-butyl-1-(3-fluorophenyl)-1H-pyrazol-5-yl)-3-(3-(6,7-dimethoxyquinazolin-4-ylthio)phenyl)urea], for which the S35 entry is given as “D (D > 0.40)”.
Regarding `COc1ccc(-n2nc(C(C)(C)C)cc2NC(=O)Nc2cccc(Oc3ncnc4cc(OC)c(OC)cc34)c2)cc1` [Ex 361, 1-(3-tert-butyl-1-(4-methoxyphenyl)-1H-pyrazol-5-yl)-3-(3-(6,7-dimethoxyquinazolin-4-yloxy)phenyl)urea], the S35 result was “C (0.20 < C ≦ 0.40)”.
For the compound `COc1ccc(-n2nc(C(C)(C)C)cc2NC(=O)Nc2cccc(Sc3ncnc4cc(OC)c(OC)cc34)c2)cc1` [Ex 362, 1-(3-tert-butyl-1-(4-methoxyphenyl)-1H-pyrazol-5-yl)-3-(3-(6,7-dimethoxyquinazolin-4-ylthio)phenyl)urea], the S35 entry is “D (D > 0.40)”.
`COc1cc2ncnc(Oc3cccc(NC(=O)Nc4cc(C(C)(C)C)nn4-c4cccc(Cl)c4)c3)c2cc1OC` [Ex 363, 1-(3-tert-butyl-1-(3-chlorophenyl)-1H-pyrazol-5-yl)-3-(3-(6,7-dimethoxyquinazolin-4-yloxy)phenyl)urea]: the S35 entry is on record as “D (D > 0.40)”.
As for `COc1cc2ncnc(Sc3cccc(NC(=O)Nc4cc(C(C)(C)C)nn4-c4cccc(Cl)c4)c3)c2cc1OC` [Ex 364, 1-(3-tert-butyl-1-(3-chlorophenyl)-1H-pyrazol-5-yl)-3-(3-(6,7-dimethoxyquinazolin-4-ylthio)phenyl)urea], the S35 entry is listed as “D (D > 0.40)”.
As for `COc1cc2ncnc(Oc3cccc(NC(=O)Nc4cc(C(C)(C)C)nn4-c4ccc(Cl)cc4)c3)c2cc1OC` [Ex 365, 1-(3-tert-butyl-1-(4-chlorophenyl)-1H-pyrazol-5-yl)-3-(3-(6,7-dimethoxyquinazolin-4-yloxy)phenyl)urea], the S35 entry was “D (D > 0.40)”.
In the case of `COc1cc2ncnc(Sc3cccc(NC(=O)Nc4cc(C(C)(C)C)nn4-c4ccc(Cl)cc4)c3)c2cc1OC` [Ex 366, 1-(3-tert-butyl-1-(4-chlorophenyl)-1H-pyrazol-5-yl)-3-(3-(6,7-dimethoxyquinazolin-4-ylthio)phenyl)urea] it was “D (D > 0.40)”; in that of `COc1cc2ncnc(Oc3ccc(F)c(NC(=O)Nc4cc(C(C)(C)C)on4)c3)c2cc1OC` [Ex 367, 1-(5-tert-butylisoxazol-3-yl)-3-(5-(6,7-dimethoxyquinazolin-4-yloxy)-2-fluorophenyl)urea], “D (D > 0.40)”; in that of `COc1cc2ncnc(Oc3ccc(F)c(NC(=O)Nc4cc(C(C)(C)C)nn4-c4ccccc4)c3)c2cc1OC` [Ex 368, 1-(3-tert-butyl-1-phenyl-1H-pyrazol-5-yl)-3-(5-(6,7-dimethoxyquinazolin-4-yloxy)-2-fluorophenyl)urea], “D (D > 0.40)”.
On to `COc1cc2ncnc(Oc3cccc(NC(=O)Nc4cc(C(C)(C)C)nn4-c4ccc(C(C)(C)C)cc4)c3)c2cc1OC` [Ex 369, 1-(3-tert-butyl-1-(4-tert-butylphenyl)-1H-pyrazol-5-yl)-3-(3-(6,7-dimethoxyquinazolin-4-yloxy)phenyl)urea], for which the S35 entry is recorded as “C (0.20 < C ≦ 0.40)”.
For `COc1cc2ncnc(Sc3cccc(NC(=O)Nc4cc(C(C)(C)C)nn4-c4ccc(C(C)(C)C)cc4)c3)c2cc1OC` [Ex 370, 1-(3-tert-butyl-1-(4-tert-butylphenyl)-1H-pyrazol-5-yl)-3-(3-(6,7-dimethoxyquinazolin-4-ylthio)phenyl)urea] the value was “D (D > 0.40)”; for `COc1cc2ncnc(Sc3cccc(NC(=O)Nc4cc(C(C)(C)C)nn4-c4ccccc4F)c3)c2cc1OC` [Ex 371, 1-(3-tert-butyl-1-(2-fluorophenyl)-1H-pyrazol-5-yl)-3-(3-(6,7-dimethoxyquinazolin-4-ylthio)phenyl)urea], “D (D > 0.40)”; for `COc1cc2ncnc(Oc3cccc(NC(=O)Nc4cc(C(C)(C)C)nn4-c4ccccc4F)c3)c2cc1OC` [Ex 372, 1-(3-tert-butyl-1-(2-fluorophenyl)-1H-pyrazol-5-yl)-3-(3-(6,7-dimethoxyquinazolin-4-yloxy)phenyl)urea], “D (D > 0.40)”.
In the case of `COc1cc2ncnc(Oc3cccc(NC(=O)Nc4cc(C(C)(C)C)nn4-c4ccc(C(F)(F)F)cc4)c3)c2cc1OC` [Ex 373, 1-(3-tert-butyl-1-(4-(trifluoromethyl)phenyl)-1H-pyrazol-5-yl)-3-(3-(6,7-dimethoxyquinazolin-4-yloxy)phenyl)urea], the S35 result was “C (0.20 < C ≦ 0.40)”.
As to `COc1cc2ncnc(Sc3cccc(NC(=O)Nc4cc(C(C)(C)C)nn4-c4ccccc4C(F)(F)F)c3)c2cc1OC` [Ex 375, 1-(3-tert-butyl-1-(2-(trifluoromethyl)phenyl)-1H-pyrazol-5-yl)-3-(3-(6,7-dimethoxyquinazolin-4-ylthio)phenyl)urea], the S35 result was “C (0.20 < C ≦ 0.40)”.
In the case of `COc1cc2ncnc(Oc3cccc(NC(=O)Nc4cc(C(C)(C)C)nn4-c4ccccc4C(F)(F)F)c3)c2cc1OC` [Ex 376, 1-(3-tert-butyl-1-(2-(trifluoromethyl)phenyl)-1H-pyrazol-5-yl)-3-(3-(6,7-dimethoxyquinazolin-4-yloxy)phenyl)urea] it was “D (D > 0.40)”.
For `COc1cc2ncnc(Oc3cccc(NC(=O)Nc4cc(C5(C(F)(F)F)CC5)on4)c3)c2cc1OC` [Ex 377, 1-(3-(6,7-dimethoxyquinazolin-4-yloxy)phenyl)-3-(5-(1-(trifluoromethyl)cyclopropyl)isoxazol-3-yl)urea], the S35 entry is reported as “C (0.20 < C ≦ 0.40)”.
In the case of `COc1cc2ncnc(Sc3cccc(NC(=O)Nc4cc(C5(C(F)(F)F)CC5)on4)c3)c2cc1OC` [Ex 378, 1-(3-(6,7-dimethoxyquinazolin-4-ylthio)phenyl)-3-(5-(1-(trifluoromethyl)cyclopropyl)isoxazol-3-yl)urea], the S35 entry was “C (0.20 < C ≦ 0.40)”.
For `COc1cc2ncnc(Oc3cccc(NC(=O)Nc4cc(C(C)(C)C)nn4-c4cccc(C(F)(F)F)c4)c3)c2cc1OC` [Ex 379, 1-(3-tert-butyl-1-(3-(trifluoromethyl)phenyl)-1H-pyrazol-5-yl)-3-(3-(6,7-dimethoxyquinazolin-4-yloxy)phenyl)urea], the S35 entry is “D (D > 0.40)”.
Turning to `COc1cc2ncnc(Sc3cccc(NC(=O)Nc4cc(C(C)(C)C)nn4-c4cccc(C(F)(F)F)c4)c3)c2cc1OC` [Ex 380, 1-(3-tert-butyl-1-(3-(trifluoromethyl)phenyl)-1H-pyrazol-5-yl)-3-(3-(6,7-dimethoxyquinazolin-4-ylthio)phenyl)urea], the S35 result was “C (0.20 < C ≦ 0.40)”.
Take `COc1cc2ncnc(Sc3cccc(NC(=O)Nc4cc(C(C)(C)C#N)no4)c3)c2cc1OC` [Ex 381, 1-(3-(2-cyanopropan-2-yl)isoxazol-5-yl)-3-(3-(6,7-dimethoxyquinazolin-4-ylthio)phenyl)urea]: the S35 result is recorded as “C (0.20 < C ≦ 0.40)”.
For the compound `COc1cc2ncnc(Sc3cccc(NC(=O)Nc4cc(C(F)(F)F)no4)c3)c2cc1OC` [Ex 382, 1-(3-(6,7-dimethoxyquinazolin-4-ylthio)phenyl)-3-(3-(trifluoromethyl)isoxazol-5-yl)urea], the S35 result is “C (0.20 < C ≦ 0.40)”.
Consider `COc1cc2ncnc(Sc3cccc(NC(=O)Nc4cc(C5(C(F)(F)F)CC5)nn4-c4ccccc4)c3)c2cc1OC` [Ex 383, 1-(3-(6,7-dimethoxyquinazolin-4-ylthio)phenyl)-3-(1-phenyl-3-(1-(trifluoromethyl)cyclopropyl)-1H-pyrazol-5-yl)urea], for which the S35 entry is “C (0.20 < C ≦ 0.40)”.
In the case of `CCOc1cc2ncnc(Oc3cccc(NC(=O)Nc4cc(C(C)(C)F)no4)c3)c2cc1OC` [Ex 385, 1-(3-(7-ethoxy-6-methoxyquinazolin-4-yloxy)phenyl)-3-(3-(2-fluoropropan-2-yl)isoxazol-5-yl)urea] it was “C (0.20 < C ≦ 0.40)”; in that of `CCOc1cc2ncnc(Oc3cccc(NC(=O)Nc4cc(C(C)(CF)CF)on4)c3)c2cc1OC` [Ex 386, 1-(5-(1,3-difluoro-2-methylpropan-2-yl)isoxazol-3-yl)-3-(3-(7-ethoxy-6-methoxyquinazolin-4-yloxy)phenyl)urea], “C (0.20 < C ≦ 0.40)”.
